In BindingDB's records for patent US9868748 (Vitae Pharmaceuticals, 2018):

Molecular target: T1, Nuclear receptor ROR-gamma (Homo sapiens, UniProt P51449)
T1 sequence (P51449 whole entry): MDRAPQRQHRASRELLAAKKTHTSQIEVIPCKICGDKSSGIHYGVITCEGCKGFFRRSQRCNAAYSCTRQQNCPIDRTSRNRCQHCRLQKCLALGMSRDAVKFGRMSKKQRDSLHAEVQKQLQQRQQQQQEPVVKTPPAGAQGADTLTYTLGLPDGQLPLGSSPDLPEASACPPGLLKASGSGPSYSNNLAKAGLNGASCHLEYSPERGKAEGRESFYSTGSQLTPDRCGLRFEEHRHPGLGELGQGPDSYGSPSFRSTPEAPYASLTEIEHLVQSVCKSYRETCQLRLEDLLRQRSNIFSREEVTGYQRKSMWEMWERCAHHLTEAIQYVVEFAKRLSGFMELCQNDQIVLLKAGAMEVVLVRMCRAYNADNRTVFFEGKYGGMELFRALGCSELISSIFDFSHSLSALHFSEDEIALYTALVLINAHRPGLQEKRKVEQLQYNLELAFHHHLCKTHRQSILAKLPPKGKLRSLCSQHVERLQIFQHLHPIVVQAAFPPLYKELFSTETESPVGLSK
Assay: Binding Assay
Description: Compounds of the present invention were tested for ability to bind to RORγ in a cell-free competition assay with commercially available radio-ligand (RL), 25-hydroxy [26,27-3H] cholesterol (PerkinElmer, Cat. # NET674250UC), for a ligand binding site on a recombinant RORγ Ligand Binding Domain (LBD) protein expressed as a 6×His-Glutathione-S-Transferase (GST) fusion ( 6×His disclosed as SEQ ID NO: 2). The assay was performed in 96-well SPA plates (PerkinElmer, Cat. #1450-401) in 50 mM HEPES buffer, pH 7.4, containing 150 mM NaCl, 5 mM MgCl2, 10% (v/v) glycerol, 2 mM CHAPS, 0.5 mM β-octylglucopyranoside and 5 mM DTT. Tested compounds were dissolved in DMSO, and semi-log (3.162×) serial dilutions of the compounds were prepared in the same solvent. Two μL of the DMSO solutions were mixed with 28 μL of 8.6 nM 25-hydroxy [26,27-3H] cholesterol and 50 μL of 24 nM RORγ LBD. […] SPA signal for tritium beta radiation was registered on PerkinElmer Microbeta plate reader. Percent inhibition values were calculated based on the high signal obtained with DMSO control and the low signal observed with 10 μM standard RORγ inverse agonist T0901317 (SigmaAldrich, Cat. # T2320). The percent inhibition vs. concentration data were fit into a four-parameter model, and […] values were calculated from the fit as the concentrations corresponding to the inflection points on the dose-response curves.

Ki: < 100 nM
SMILES: CCS(=O)(=O)c1ccc(CC(=O)Nc2nc3c(s2)CN(CC2CC[C@@H](C(F)(F)F)N(C)C2)[C@H]3C(C)C)cc1 (stereo partly specified) [US9868748, I-A30]
